MIC data for 15 molecules are collected here from patent publication US12552825B2 (Zikani Therapeutics, Inc., priority 2019, dated 2026).

Converted amounts (≈) assume the structure as drawn.

Type in all cases: cell-based
One assay has as its system S. aureus MP-12. Description: microbe, parasite or virus in culture. To be noted: Staphylococcus aureus, MP12, read-out: MIC S. aureus MP-12.
The test system of the next assay is E. coli MP-4. The assay can be described thus: MIC determination by CLSI broth dilution, E. coli MP-4. The note with it: Escherichia coli, MP4, CLSI broth dilution; strain MP-4. For orientation: Broth dilution looks for growth in wells or tubes with falling amounts of substance.
The test system of a further assay is K. pneumoniae MP-546. Description: MIC determination by CLSI broth dilution, K. pneumoniae MP-546. To be noted: Klebsiella pneumoniae, MP546, CLSI broth dilution; strain MP-546.
Another assay deals with K. pneumoniae MP-648. Description: MIC determination by CLSI broth dilution, K. pneumoniae MP-648. To be noted: Klebsiella pneumoniae, MP648, CLSI broth dilution; strain MP-648.
In the next assay the test system is P. aeruginosa MP-3. Description: MIC determination by CLSI broth dilution, P. aeruginosa MP-3. The note with it: Pseudomonas aeruginosa, MP3, strain MP-3.
In a further assay the test system is A. baumannii MP-15. Description: MIC determination by CLSI broth dilution, A. baumannii MP-15. The note with it: Acinetobacter baumannii, MP15, strain MP-15, read-out: MIC A. baumanii MP-15.

Consider `CCN1C[C@H](C)C[C@@](C)(OC)[C@H](O[C@@H]2O[C@H](C)C[C@H](N(C)C)[C@H]2O)[C@@H](C)C(=O)C(C)(C)C(=O)OC[C@H]1CC1CCN(C)CC1` [Compound 98, (3R,6R,8R,9R,10R)-9-(((2S,3R,4S,6R)-4-(dimethylamino)-3-hydroxy-6-methyltetrahydro-2H-pyran-2-yl)oxy)-4-ethyl-8-methoxy-6,8,10,12,12-pentamethyl-3-((1-methylpiperidin-4-yl)methyl)-1-oxa-4-azacyclotridecane-11,13-dione], for which the MIC in the assay with S. aureus MP-12 was 4 to 32 mg/L (≈ 6.39 to 51.1 µM); against E. coli MP-4, less than 4 mg/L; against K. pneumoniae MP-546 it was less than 4 mg/L; against K. pneumoniae MP-648, less than 4 mg/L; against P. aeruginosa MP-3, more than 32 mg/L; in the assay on A. baumannii MP-15, more than 32 mg/L.
Consider `CCN(C)CC[C@@H](O)[C@@H]1COC(=O)C(C)(C)C(=O)[C@H](C)[C@@H](O[C@@H]2O[C@H](C)C[C@H](N(C)C)[C@H]2O)[C@](C)(OC)C[C@@H](C)CN1C` [Compound 3], for which the MIC in the assay on S. aureus MP-12 was 4 to 32 mg/L (≈ 6.5 to 52 µM); with E. coli MP-4, less than 4 mg/L; against K. pneumoniae MP-546 it was less than 4 mg/L; in the assay with K. pneumoniae MP-648, less than 4 mg/L; with P. aeruginosa MP-3, more than 32 mg/L; in the assay with A. baumannii MP-15, more than 32 mg/L.
Consider `CCCN1C[C@H](C)C[C@@](C)(OC)[C@H](O[C@@H]2O[C@H](C)C[C@H](N(C)C)[C@H]2O)[C@@H](C)C(=O)C(C)(C)C(=O)OC[C@@H]1CCCN(C)C(C)C` [Compound 18, (3S,6R,8R,9R,10R)-9-(((2S,3R,4S,6R)-4-(dimethylamino)-3-hydroxy-6-methyltetrahydro-2H-pyran-2-yl)oxy)-3-(3-(isopropyl(methyl)amino)propyl)-8-methoxy-6,8,10,12,12-pentamethyl-4-propyl-1-oxa-4-azacyclotridecane-11,13-dione], for which the MIC is less than 4 mg/L in the assay with S. aureus MP-12; less than 4 mg/L in the assay on E. coli MP-4; less than 4 mg/L against K. pneumoniae MP-546; less than 4 mg/L against K. pneumoniae MP-648; more than 32 mg/L in the assay with P. aeruginosa MP-3; more than 32 mg/L in the assay on A. baumannii MP-15.
As for `CCCN1C[C@H](C)C[C@@](C)(OC)[C@H](O[C@@H]2O[C@H](C)C[C@H](N(C)C)[C@H]2O)[C@@H](C)C(=O)C(C)(C)C(=O)OC[C@H]1CC1CCN(C)CC1` [Compound 95, (3R,6R,8R,9R,10R)-9-(((2S,3R,4S,6R)-4-(dimethylamino)-3-hydroxy-6-methyltetrahydro-2H-pyran-2-yl)oxy)-8-methoxy-6,8,10,12,12-pentamethyl-3-((1-methylpiperidin-4-yl)methyl)-4-propyl-1-oxa-4-azacyclotridecane-11,13-dione], the MIC in the assay with S. aureus MP-12 was 4 to 32 mg/L (≈ 6.25 to 50 µM); with E. coli MP-4, less than 4 mg/L; against K. pneumoniae MP-546, less than 4 mg/L; in the assay on K. pneumoniae MP-648, less than 4 mg/L; with P. aeruginosa MP-3, more than 32 mg/L; in the assay with A. baumannii MP-15 it was 4 to 32 mg/L (≈ 6.25 to 50 µM).
`CO[C@]1(C)C[C@@H](C)CN(C)[C@H](CC2CCN(C3CC3)CC2)COC(=O)C(C)(C)C(=O)[C@H](C)[C@H]1O[C@@H]1O[C@H](C)C[C@H](N(C)C)[C@H]1O` [Compound 63]: the MIC in the assay on S. aureus MP-12 was 4 to 32 mg/L (≈ 6.27 to 50.2 µM); in the assay with E. coli MP-4, less than 4 mg/L; with K. pneumoniae MP-546, less than 4 mg/L; with K. pneumoniae MP-648, 4 to 32 mg/L (≈ 6.27 to 50.2 µM); in the assay on P. aeruginosa MP-3, more than 32 mg/L; in the assay with A. baumannii MP-15, more than 32 mg/L.
Consider `CCCN1CCC(C[C@@H]2COC(=O)C(C)(C)C(=O)[C@H](C)[C@@H](O[C@@H]3O[C@H](C)C[C@H](N(C)C)[C@H]3O)[C@](C)(OC)C[C@@H](C)CN2CCC)CC1` [Compound 96, (3R,6R,8R,9R,10R)-9-(((2S,3R,4S,6R)-4-(dimethylamino)-3-hydroxy-6-methyltetrahydro-2H-pyran-2-yl)oxy)-8-methoxy-6,8,10,12,12-pentamethyl-4-propyl-3-((1-propylpiperidin-4-yl)methyl)-1-oxa-4-azacyclotridecane-11,13-dione], for which the MIC in the assay with S. aureus MP-12 was 4 to 32 mg/L (≈ 5.99 to 47.9 µM); against E. coli MP-4, less than 4 mg/L; against K. pneumoniae MP-546, less than 4 mg/L; with K. pneumoniae MP-648, 4 to 32 mg/L (≈ 5.99 to 47.9 µM); in the assay with P. aeruginosa MP-3 it was more than 32 mg/L; in the assay with A. baumannii MP-15, more than 32 mg/L.
In the case of `CO[C@]1(C)C[C@@H](C)CN(C)[C@@H](CCCN2CCNC(=O)C2)COC(=O)C(C)(C)C(=O)[C@H](C)[C@H]1O[C@@H]1O[C@H](C)C[C@H](N(C)C)[C@H]1O` [Compound 115, (3S,6R,8R,9R,10R)-9-(((2S,3R,4S,6R)-4-(dimethylamino)-3-hydroxy-6-methyltetrahydro-2H-pyran-2-yl)oxy)-8-methoxy-4,6,8,10,12,12-hexamethyl-3-(3-(3-oxopiperazin-1-yl)propyl)-1-oxa-4-azacyclotridecane-11,13-dione], the MIC in the assay on S. aureus MP-12, against E. coli MP-4, in the assay on K. pneumoniae MP-546, in the assay with K. pneumoniae MP-648, in the assay with P. aeruginosa MP-3 and in the assay with A. baumannii MP-15 was more than 32 mg/L throughout.
For the molecule `COCO[C@@H](C1CCN(CC2CC2)CC1)[C@@H]1COC(=O)C(C)(C)C(=O)[C@H](C)[C@@H](O[C@@H]2O[C@H](C)C[C@H](N(C)C)[C@H]2O)[C@](C)(OC)C[C@@H](C)CN1C` [Compound 29], the MIC with S. aureus MP-12 is 4 to 32 mg/L (≈ 5.62 to 44.9 µM); against E. coli MP-4 it was 4 to 32 mg/L (≈ 5.62 to 44.9 µM); in the assay with K. pneumoniae MP-546, more than 32 mg/L; in the assay with K. pneumoniae MP-648, more than 32 mg/L; in the assay with P. aeruginosa MP-3 it was more than 32 mg/L; in the assay with A. baumannii MP-15, more than 32 mg/L.
As to `CCCN1CC(C[C@H]2COC(=O)C(C)(C)C(=O)[C@H](C)[C@@H](O[C@@H]3O[C@H](C)C[C@H](N(C)C)[C@H]3O)[C@](C)(OC)C[C@@H](C)CN2C)C1` [Compound 79], the MIC in the assay with S. aureus MP-12 was more than 32 mg/L; in the assay with E. coli MP-4, 4 to 32 mg/L (≈ 6.54 to 52.3 µM); in the assay with K. pneumoniae MP-546, more than 32 mg/L; in the assay on K. pneumoniae MP-648, more than 32 mg/L; against P. aeruginosa MP-3, more than 32 mg/L; in the assay on A. baumannii MP-15 it was more than 32 mg/L.
For the molecule `CO[C@]1(C)C[C@@H](C)CN(C)[C@H](CCCN(C)C(C)C)COC(=O)C(C)(C)C(=O)[C@H](C)[C@H]1O[C@@H]1O[C@H](C)C[C@H](N(C)C)[C@H]1O` [Compound 12, (3R,6R,8R,9R,10R)-9-(((2S,3R,4S,6R)-4-(dimethylamino)-3-hydroxy-6-methyltetrahydro-2H-pyran-2-yl)oxy)-3-(3-(isopropyl(methyl)amino)propyl)-8-methoxy-4,6,8,10,12,12-hexamethyl-1-oxa-4-azacyclotridecane-11,13-dione], the MIC with S. aureus MP-12 was 4 to 32 mg/L (≈ 6.52 to 52.1 µM); against E. coli MP-4 it was less than 4 mg/L; with K. pneumoniae MP-546, less than 4 mg/L; against K. pneumoniae MP-648 it was less than 4 mg/L; with P. aeruginosa MP-3, more than 32 mg/L; in the assay on A. baumannii MP-15, more than 32 mg/L.
Turning to `CCCN1C[C@H](C)C[C@@](C)(OC)[C@H](O[C@@H]2O[C@H](C)C[C@H](N(C)C)[C@H]2O)[C@@H](C)C(=O)C(C)(C)C(=O)OC[C@H]1CCCN(C)C` [Compound 21, (3R,6R,8R,9R,10R)-9-(((2S,3R,4S,6R)-4-(dimethylamino)-3-hydroxy-6-methyltetrahydro-2H-pyran-2-yl)oxy)-3-(3-(dimethylamino)propyl)-8-methoxy-6,8,10,12,12-pentamethyl-4-propyl-1-oxa-4-azacyclotridecane-11,13-dione], the MIC in the assay with S. aureus MP-12 is 4 to 32 mg/L (≈ 6.52 to 52.1 µM); in the assay with E. coli MP-4 it was less than 4 mg/L; in the assay on K. pneumoniae MP-546, less than 4 mg/L; in the assay on K. pneumoniae MP-648, less than 4 mg/L; against P. aeruginosa MP-3, less than 4 mg/L; in the assay on A. baumannii MP-15, more than 32 mg/L.
Turning to `CO[C@]1(C)C[C@@H](C)CN(C)[C@H](CCCN2CCC(F)CC2)COC(=O)C(C)(C)C(=O)[C@H](C)[C@H]1O[C@@H]1O[C@H](C)C[C@H](N(C)C)[C@H]1O` [Compound 85, (3R,6R,8R,9R,10R)-9-(((2S,3R,4S,6R)-4-(dimethylamino)-3-hydroxy-6-methyltetrahydro-2H-pyran-2-yl)oxy)-3-(3-(4-fluoropiperidin-1-yl)propyl)-8-methoxy-4,6,8,10,12,12-hexamethyl-1-oxa-4-azacyclotridecane-11,13-dione], the MIC in the assay with S. aureus MP-12 was less than 4 mg/L; against E. coli MP-4, less than 4 mg/L; against K. pneumoniae MP-546, less than 4 mg/L; against K. pneumoniae MP-648 it was less than 4 mg/L; in the assay on P. aeruginosa MP-3, more than 32 mg/L; in the assay with A. baumannii MP-15 it was more than 32 mg/L.
As to `CO[C@]1(C)C[C@@H](C)CN(C)[C@H](CC2CCN(Cc3ccco3)CC2)COC(=O)C(C)(C)C(=O)[C@H](C)[C@H]1O[C@@H]1O[C@H](C)C[C@H](N(C)C)[C@H]1O` [Compound 62], the MIC was 4 to 32 mg/L (≈ 5.9 to 47.2 µM) in the assay on S. aureus MP-12; less than 4 mg/L in the assay with E. coli MP-4; less than 4 mg/L in the assay on K. pneumoniae MP-546; less than 4 mg/L against K. pneumoniae MP-648; more than 32 mg/L with P. aeruginosa MP-3; 4 to 32 mg/L (≈ 5.9 to 47.2 µM) in the assay with A. baumannii MP-15.
As for `CCCN1CCC(CC[C@@H]2COC(=O)C(C)(C)C(=O)[C@H](C)[C@@H](O[C@@H]3O[C@H](C)C[C@H](N(C)C)[C@H]3O)[C@](C)(OC)C[C@@H](C)CN2C)CC1` [Compound 75], the MIC with S. aureus MP-12 was more than 32 mg/L; against E. coli MP-4, 4 to 32 mg/L (≈ 6.12 to 48.9 µM); in the assay on K. pneumoniae MP-546 it was more than 32 mg/L; in the assay on K. pneumoniae MP-648 it was more than 32 mg/L; in the assay with P. aeruginosa MP-3, more than 32 mg/L; with A. baumannii MP-15 it was more than 32 mg/L.
With `CO[C@]1(C)C[C@@H](C)CN(C)[C@@H](CCCN(C)C2CCCC2)COC(=O)C(C)(C)C(=O)[C@H](C)[C@H]1O[C@@H]1O[C@H](C)C[C@H](N(C)C)[C@H]1O` [Compound 99, (3S,6R,8R,9R,10R)-3-(3-(cyclopentyl(methyl)amino)propyl)-9-(((2S,3R,4S,6R)-4-(dimethylamino)-3-hydroxy-6-methyltetrahydro-2H-pyran-2-yl)oxy)-8-methoxy-4,6,8,10,12,12-hexamethyl-1-oxa-4-azacyclotridecane-11,13-dione], the MIC is 4 to 32 mg/L (≈ 6.25 to 50 µM) in the assay with S. aureus MP-12; less than 4 mg/L in the assay on E. coli MP-4; less than 4 mg/L against K. pneumoniae MP-546; less than 4 mg/L with K. pneumoniae MP-648; more than 32 mg/L in the assay with P. aeruginosa MP-3; more than 32 mg/L with A. baumannii MP-15.
